Consider 26 molecules from the supplement of paper PMC8967900.

What all share (assay): selective drug sensitivity score (sDSS, relative to normal bone marrow) (sDSS (score)); higher = more potent and effective on the cell line relative to normal bone marrow cells
Holding throughout (details): 72 h

Test [1] relates to DND-41.
The subject of test [2] is COG-LL-355h.
The subject of test [3] is CCRF-CEM.
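Further: ALL cell lines in 384-well plates, five doses spanning 10,000-fold, each plate scaled between vehicle and 100 µmol/L benzalkonium chloride controls, sDSS an adapted area-under-curve metric.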

For `C=C1C[C@@H]2CC[C@@]34C[C@H]5O[C@H]6[C@@H](O3)[C@H]3O[C@H](CC[C@@H]3O[C@H]6[C@H]5O4)CC(=O)C[C@@H]3[C@@H](OC)[C@@H](C[C@H](O)CN)O[C@H]3C[C@H]3O[C@@H](CC[C@@H]1O2)C[C@@H](C)C3=C` [Eribulin] (top concentration 1000 nM), the figures for the “selective drug sensitivity score” value in test [1], in test [2] and in test [3] were 9.1, 4.4 and 19.9, respectively.

With `COc1cc2c(cc1OCCCN1CCCC1)N=C(N)C21CCC1` [A-366] (top concentration 25000 nM), the “selective drug sensitivity score” value was 4.56 in test [1], 0.76 in test [2] and 2.16 in test [3].

Regarding `Cc1c(F)cc(C(=O)NC2CC2)cc1-c1ccc(C(=O)NCC(C)(C)C)cn1` [Losmapimod] (top concentration 10000 nM), the figures for the “selective drug sensitivity score” value in test [1], in test [2] and in test [3] were -0.18, 1.92 and -0.18, respectively.

As to `COc1cc(N2CCC(N3CCN(C)CC3)CC2)ccc1Nc1ncnc(Nc2ccccc2S(=O)(=O)C(C)C)n1` [ASP3026] (top concentration 10000 nM), the results for the “selective drug sensitivity score” value in test [1], in test [2] and in test [3] were 0.56, 1.36 and -0.14, respectively.

Regarding `CCC(C)(C)C(=O)O[C@H]1C[C@@H](C)C=C2C=C[C@H](C)[C@H](CC[C@@H]3C[C@@H](O)CC(=O)O3)[C@H]21` [Simvastatin] (top concentration 10000 nM), the “selective drug sensitivity score” value was -0.72 in test [1], 3.48 in test [2] and 2.38 in test [3].

As for `NC(=S)N/N=C/c1ncccc1N` [Triapine] (top concentration 10000 nM), the entries for the “selective drug sensitivity score” value in test [1], in test [2] and in test [3] were 7.38, 1.08 and 2.68, respectively.

For `N#Cc1ccnc(N2C(=O)CC[C@H]2C(=O)N(c2cncc(F)c2)[C@H](C(=O)NC2CC(F)(F)C2)c2ccccc2Cl)c1` [Ivosidenib] (top concentration 10000 nM), the “selective drug sensitivity score” value in test [1] amounted to 0; in test [2] it was 0; in test [3], 1.

On to `COc1cc2c(N3CCN(C(=O)Nc4ccc(OC(C)C)cc4)CC3)ncnc2cc1OCCCN1CCCCC1` [Tandutinib] (top concentration 1000 nM), for which the “selective drug sensitivity score” value turned out to be 2.3 in test [1], 0 in test [2] and 0 in test [3].

As to `CNC(=O)c1ccc(-c2cnc3ncc(Cc4ccc5ncccc5c4)n3n2)cc1F` [Capmatinib] (top concentration 1000 nM), the “selective drug sensitivity score” value amounted to 0.34 in test [1], 0.04 in test [2] and 0.04 in test [3].

`CC(C)Cn1cnc2c(N)nc3ccccc3c21` [Imiquimod] (top concentration 2500 nM): the “selective drug sensitivity score” value was determined as 0 in test [1], 0.6 in test [2] and 0 in test [3].

Turning to `C[C@]12CC[C@@H]3c4ccc(O)cc4C[C@@H](CCCCCCCCC[S+]([O-])CCCC(F)(F)C(F)(F)F)[C@H]3[C@@H]1CC[C@@H]2O` (stereo partly drawn) [Fulvestrant] (top concentration 1000 nM), the “selective drug sensitivity score” value in test [1] came to 8.3; in test [2] it was 1.3; in test [3], 0.

With `CC#CC(=O)N1CCC[C@H]1c1nc(-c2ccc(C(=O)Nc3ccccn3)cc2)c2c(N)nccn12` [Acalabrutinib] (top concentration 1000 nM), the “selective drug sensitivity score” value in test [1] is -0.1; in test [2], -0.1; in test [3] it was 0.8.

With `O=c1[nH]cc(F)c(=O)[nH]1` [Fluorouracil] (top concentration 10000 nM), the “selective drug sensitivity score” value is -0.64 in test [1], 1.76 in test [2] and 3.06 in test [3].

On to `CC(C)(O)CC(=O)NCCn1ccc2ncnc(Nc3ccc(Oc4cccc(C(F)(F)F)c4)c(Cl)c3)c21` [TAK-285] (top concentration 2500 nM), for which the results for the “selective drug sensitivity score” value in test [1], in test [2] and in test [3] were 0, 0 and 0.2, respectively.

As to `CC[C@]12C=CCN3CC[C@@]4(c5cc([C@@]6(C(=O)OC)C[C@@H]7C[C@@H](C(C)(F)F)CN(Cc8c6[nH]c6ccccc86)C7)c(OC)cc5N(C)[C@H]4[C@@](O)(C(=O)OC)[C@@H]1OC(C)=O)[C@@H]32` [Vinflunine] (top concentration 1000 nM), the “selective drug sensitivity score” value stood at 0.18 in test [1], 2.68 in test [2] and 3.98 in test [3].

Regarding `Cn1cc(C[C@@H](N)C(=O)O)c2ccccc21` [1-methyl-D-tryptophan] (top concentration 5000 nM), the “selective drug sensitivity score” value in test [1], in test [2] and in test [3] was -0.62 each time.

For `Cc1cc(-c2ncc(CC(=O)Nc3ccc(-c4cnccn4)cn3)cc2C)ccn1` [NVP-LGK974] (top concentration 10000 nM), the entries for the “selective drug sensitivity score” value in test [1], in test [2] and in test [3] were 1.3, 3.3 and -0.5, respectively.

On to `N#CC(c1ccnc(OCc2ccc(CN3CCOCC3)cc2)n1)c1nc2ccccc2s1` (stereo not drawn) [Bentamapimod] (top concentration 10000 nM), for which the “selective drug sensitivity score” value in test [1] worked out at 3.64; in test [2] it was 1.84; in test [3] it was 3.94.

On to `Nc1nc2cc(-c3ccc4ncc(C(=O)N5CCOCC5)n4c3)ccc2o1` [Serabelisib] (top concentration 10000 nM), for which the entries for the “selective drug sensitivity score” value in test [1], in test [2] and in test [3] were 0.66, 4.06 and 0.76, respectively.

Consider `C#Cc1cccc(Nc2ncnc3cc4c(cc23)OCCOCCOCCO4)c1` [Icotinib] (top concentration 10000 nM), for which the “selective drug sensitivity score” value in test [1] was determined as 0; in test [2], 0.1; in test [3] it was 0.3.

As to `COc1cc2c(Oc3ccc4[nH]c(C)cc4c3F)ncnc2cc1OCCCN1CCCC1` [Cediranib] (top concentration 1000 nM), the “selective drug sensitivity score” value in test [1] was 0; in test [2], 0; in test [3], 0.1.

For the molecule `CC1(C)NC(=O)N(c2ccc([N+](=O)[O-])c(C(F)(F)F)c2)C1=O` [Nilutamide] (top concentration 10000 nM), the “selective drug sensitivity score” value is -0.38 in test [1], -0.48 in test [2] and -0.48 in test [3].

Consider `C[C@H]1CNCCCN1S(=O)(=O)c1cccc2cncc(F)c12` [Ripasudil] (top concentration 10000 nM), for which the “selective drug sensitivity score” value was -0.22 in test [1], -0.22 in test [2] and -0.12 in test [3].

Take `Cn1nnc2c(C(N)=O)ncn2c1=O` [Temozolomide] (top concentration 100000 nM): the figures for the “selective drug sensitivity score” value in test [1], in test [2] and in test [3] were -0.04, -0.04 and 7.16, respectively.

With `CC(C)C(=O)Nc1ccc([N+](=O)[O-])c(C(F)(F)F)c1` [Flutamide] (top concentration 10000 nM), the figures for the “selective drug sensitivity score” value in test [1], in test [2] and in test [3] were -0.16, -0.56 and -0.16, respectively.

With `C=CCN(/C=C1/C(=O)O[C@H](COC)[C@@]2(C)C1=C(O)C(=O)C1=C2[C@H](OC(C)=O)C[C@]2(C)C(=O)CC[C@@H]12)CC=C` [Sonolisib] (top concentration 10000 nM), the “selective drug sensitivity score” value in test [1] was 1.64; in test [2], 0.94; in test [3], -0.66.
